Measured values published in patent US11767341B2, “Lincosamide antibiotics and uses thereof” (President and Fellows of Harvard College, priority 2017, dated 2023).
Converted amounts (≈) assume the structure as drawn. Where two headings read alike, the source gives them in different places.

Tests used:
Assay in all cases: MIC determination
Type in all cases: cell-based
[1] = test system: E. coli MMX TolC parent strain; conditions: Escherichia coli
[2] = test system: E. faecalis MMX 847 Macrolide-Resistant; conditions: Enterococcus faecalis
[3] = test system: S. aureus Micromyx USA 300; conditions: Staphylococcus aureus, USA300; S. aureus Micromyx USA 300; read-out: MIC
E. coli GUEST131 (NDM-1) = conditions: Escherichia coli
[4] = test system: S. pneumoniae TP 1579 (ermB + tet(M, O)); conditions: Streptococcus pneumoniae
[5] = test system: S. pneumoniae UNT-039, MP-627, TP1517 (mefA); conditions: Streptococcus pneumoniae
[6] = test system: P. aeruginosa MMX Mex parent strain; conditions: Pseudomonas aeruginosa
[7] = test system: S. pneumoniae UNT-038, MP-626, TP 160 (mefA); conditions: Streptococcus pneumoniae
[8] = test system: P. aeruginosa MMX 3476 Δmex; conditions: Pseudomonas aeruginosa
[9] = test system: S. aureus MP-513 clinical cErm; conditions: Staphylococcus aureus
P. aeruginosa ATCC 27853 = conditions: Pseudomonas aeruginosa, ATCC27853
E. coli MMX 0121 ΔTolC = conditions: Escherichia coli
[10] = test system: S. pyogenes UNT-014, MP-625 MacRes; conditions: Streptococcus pyogenes
[11] = test system: S. pneumoniae MMX 3031 cMefA; conditions: Streptococcus pneumoniae, MMX3031CMEFA
[12] = test system: S. aureus MP-549 msr(a) USA 300; conditions: Staphylococcus aureus, USA300, S. aureus MP-549 msr(a) USA 300
B. fragilis ATCC 25285 = conditions: Bacteroides fragilis, ATCC25285
E. coli MP-9 ΔTolC = conditions: Escherichia coli
S. pneumoniae ATCC 49619 = conditions: Streptococcus pneumoniae, ATCC49619; S. pneumoniae ATCC 49619; read-out: MIC
[13] = test system: S. pneumoniae MMX 3028 cErmB; conditions: Streptococcus pneumoniae, MMX3028CERMB
C. difficile BAA 1805 = conditions: Clostridioides difficile, BAA1805; C. difficile BAA 1805; read-out: MIC
S. aureus MMX 3035 cErmA = conditions: Staphylococcus aureus, MMX3035CERMA
[14] = test system: E. coli MP-74 LptD mutant; conditions: Escherichia coli
E. faecalis ATCC 29212 = conditions: Enterococcus faecalis
S. pyogenes ATCC 19615 = conditions: Streptococcus pyogenes, ATCC19615
S. aureus ATCC 29213 = conditions: Staphylococcus aureus
H. influenzae ATCC 49247 = conditions: Haemophilus influenzae, ATCC49247
[15] = test system: S. pyogenes MMX 946 Macrolide-Resistant; conditions: Streptococcus pyogenes; S. pyogenes MMX 946 Macrolide-Resistant (MacRes); read-out: MIC
S. aureus BAA 977 iErmA = conditions: Staphylococcus aureus, BAA977
E. coli ATCC 25922 = conditions: Escherichia coli, ATCC25922
E. faecalis UNT-047 VRE = conditions: Enterococcus faecalis, VRE
[16] = test system: S. aureus UNT-146, MP-620, TP 506 (ermA); conditions: Staphylococcus aureus
[17] = test system: S. aureus UNT96, NRS710, MP-618 (USA 100, Erythro >8); conditions: Staphylococcus aureus
[18] = test system: S. aureus UNT-120, MP-619, NRS22 (USA 600, GISA); conditions: Staphylococcus aureus
K. pneumoniae ATCC 10031 = conditions: Klebsiella pneumoniae, ATCC10031
[19] = S. pyogenes UNT-014, MP-625 MacRes, read-out: MIC
[20] = S. pyogenes ATCC 19615, read-out: MIC
[21] = ATCC29213, S. aureus ATCC 29213, read-out: MIC

SMILES	MIC [1] [µg/mL]	MIC [2] [µg/mL]	MIC [3] [µg/mL]	MIC [5] [µg/mL]	MIC [6] [µg/mL]	MIC [7] [µg/mL]	MIC [9] [µg/mL]	MIC (P. aeruginosa ATCC 27853) [µg/mL]	MIC [10, 19] [µg/mL]	MIC [12] [µg/mL]	MIC (E. coli MP-9 ΔTolC) [µg/mL]	MIC (S. pneumoniae ATCC 49619) [µg/mL]	MIC (E. faecalis ATCC 29212; ATCC29212) [µg/mL]	MIC (S. pyogenes ATCC 19615; [20]) [µg/mL]	MIC (S. aureus BAA 977 iErmA) [µg/mL]	MIC (E. coli ATCC 25922) [µg/mL]	MIC (E. faecalis UNT-047 VRE) [µg/mL]	MIC [16] [µg/mL]	MIC [17] [µg/mL]	MIC [18] [µg/mL]	also measured
CCC[C@@H]1C[C@@H](C(=O)N[C@@H]([C@H]2O[C@H](SC)[C@H](O)[C@@H](O)[C@H]2O)[C@H](C)Cl)N(C)C1 [Clindamycin, clindamycin, reference compound]	> 64	> 64	0.25 (≈ 0.588 µM)	≤ 0.0313	> 64	≤ 0.0313	> 64	> 64	≤ 0.0313	–	–	–	–	–	–	–	–	–	–	–	MIC (E. coli GUEST131 (NDM-1)): > 3 µg/mL; MIC [4]: ≤ 0.0313 µg/mL; MIC [8]: > 64 µg/mL; MIC (E. coli MMX 0121 ΔTolC): 4 µg/mL (≈ 9.41 µM)
CSC1O[C@H]([C@H](NC(=O)[C@H]2NC[C@@H]3CC=CCO[C@H]32)[C@H](C)Sc2ccc(-c3cncnc3)cc2)C(O)[C@@H](O)[C@H]1O (stereo partly shown) [FSA-27049]	> 64	> 64	1 (≈ 1.7 µM)	–	> 64	–	> 64	> 64	–	0.25 (≈ 0.425 µM)	64 (≈ 109 µM)	≤ 0.06	64 (≈ 109 µM)	≤ 0.06	2 (≈ 3.4 µM)	> 64	–	–	–	–	MIC [11]: ≤ 0.06 µg/mL; MIC (B. fragilis ATCC 25285): > 64 µg/mL; MIC [13]: 32 µg/mL (≈ 54.4 µM); MIC (C. difficile BAA 1805): 1 µg/mL (≈ 1.7 µM); MIC (S. aureus MMX 3035 cErmA): > 64 µg/mL; MIC [14]: 32 µg/mL (≈ 54.4 µM); MIC (S. aureus ATCC 29213; [21]): 1 µg/mL (≈ 1.7 µM); MIC [8]: > 64 µg/mL; MIC (H. influenzae ATCC 49247): 32 µg/mL (≈ 54.4 µM); MIC [15]: 2 µg/mL (≈ 3.4 µM); MIC (E. coli MMX 0121 ΔTolC): 8 µg/mL (≈ 13.6 µM)
CSC1O[C@H]([C@H](NC(=O)[C@H]2NC[C@@H]3C[C@@H](O)[C@@H](O)CO[C@H]32)[C@H](C)Cl)C(O)[C@@H](O)[C@H]1O (stereo partly shown) [FSA-501076]	–	–	–	32 (≈ 67.9 µM)	–	64 (≈ 136 µM)	> 64	> 64	–	> 64	> 64	64 (≈ 136 µM)	> 64	–	> 64	> 64	> 64	> 64	> 64	> 64	MIC (S. pyogenes ATCC 19615): > 64 µg/mL; MIC (S. aureus ATCC 29213; ATCC29213): > 64 µg/mL; MIC (K. pneumoniae ATCC 10031): > 64 µg/mL; MIC [10]: > 64 µg/mL
CSC1O[C@H]([C@H](NC(=O)[C@H]2NC[C@@H]3C[C@H]4OC(C)(C)O[C@H]4CO[C@H]32)[C@H](C)Cl)C(O)[C@@H](O)[C@H]1O (stereo partly shown) [FSA-501099]	–	–	–	2 (≈ 3.91 µM)	–	16 (≈ 31.3 µM)	> 64	> 64	29 (≈ 56.7 µM)	> 64	> 64	8 (≈ 15.7 µM)	> 64	16 (≈ 31.3 µM)	> 64	> 64	> 64	> 64	> 64	> 64	MIC (S. aureus ATCC 29213; ATCC29213): > 64 µg/mL; MIC (K. pneumoniae ATCC 10031): > 64 µg/mL
CSC1O[C@H]([C@H](NC(=O)[C@H]2NC[C@@H]3CN(Cc4ccccc4)CCO[C@H]32)[C@H](C)Cl)C(O)[C@@H](O)[C@H]1O (stereo partly shown) [FSA-502002]	–	–	–	0.125 (≈ 0.236 µM)	–	0.25 (≈ 0.472 µM)	> 64	> 64	0.125 (≈ 0.236 µM)	2 (≈ 3.77 µM)	> 64	0.25 (≈ 0.472 µM)	–	0.125 (≈ 0.236 µM)	2 (≈ 3.77 µM)	> 64	> 64	> 64	> 64	> 64	MIC (E. faecalis ATCC 29212; ATCC29212, read-out: MIC): 8 µg/mL (≈ 15.1 µM); MIC (S. aureus ATCC 29213; [21]): 2 µg/mL (≈ 3.77 µM); MIC (K. pneumoniae ATCC 10031; K. pneumoniae ATCC 10031, read-out: MIC): 64 µg/mL (≈ 121 µM)
